Reference: ChEMBL document CHEMBL1201862, “PubChem BioAssay data set” (2004)
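Test compounds were applied to cells in 96-well plates for 48 hours at 5 doses. GI50 is the concentration that inhibits growth by half.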 The source made the active and inactive calls. Rule as the data show it: active = GI50 up to about 1.1 µM and inactive = higher.

Columns and labels:
Experiment in all cases: DTP human tumour cell line panel, 48 h
UACC-62 = tested on: UACC-62
NCI-H226 = tested on: NCI-H226
OVCAR-8 = tested on: OVCAR-8
HOP-62 = tested on: HOP-62
DMS-273 = tested on: DMS-273
UACC-257 = tested on: UACC-257
COLO 205 = tested on: COLO 205
SNB-19 = tested on: SNB-19
K562 = tested on: K562
NCI-H460 = tested on: NCI-H460
SNB-75 = tested on: SNB-75
IGROV-1 = tested on: IGROV-1
HL-60 = tested on: HL-60
OVCAR-4 = tested on: OVCAR-4
SF-295 = tested on: SF-295
RPMI-8226 = tested on: RPMI-8226
U-251 = tested on: U-251
SF-268 = tested on: SF-268

Measured: GI50

CCOCN/C(N)=N\C#N
inactive: UACC-62 > 100 µM | NCI-H226 > 100 µM | OVCAR-8 > 100 µM | HOP-62 > 100 µM | DMS-273 > 100 µM | UACC-257 > 100 µM | COLO 205 > 100 µM | SNB-19 > 100 µM | K562 66.1 µM | NCI-H460 > 100 µM | SNB-75 > 100 µM | IGROV-1 > 100 µM | HL-60 > 100 µM | OVCAR-4 > 10 µM | SF-295 > 100 µM | RPMI-8226 > 100 µM | U-251 > 100 µM | SF-268 > 100 µM

O=C(CCc1nnc2s/c(=C\c3ccc4c(c3)OCO4)c(=O)n12)Nc1cc(Cl)ccc1Cl
inactive: UACC-62 > 100 µM | NCI-H226 > 100 µM | OVCAR-8 > 100 µM | HOP-62 > 100 µM | DMS-273 > 55.1 µM | UACC-257 > 100 µM | COLO 205 > 74.1 µM | SNB-19 > 100 µM | K562 > 100 µM | NCI-H460 > 100 µM | SNB-75 > 100 µM | IGROV-1 > 100 µM | HL-60 > 55.2 µM | OVCAR-4 > 100 µM | SF-295 > 100 µM | RPMI-8226 > 78.5 µM | U-251 > 100 µM | SF-268 > 100 µM

O=S1(=O)OCCOS(=O)(=O)C1(I)I
inactive: UACC-62 14.7 µM | NCI-H226 15.3 µM | OVCAR-8 20.7 µM | HOP-62 19.6 µM | DMS-273 20.6 µM | UACC-257 22.6 µM | COLO 205 16.9 µM | SNB-19 26.5 µM | K562 29.5 µM | SNB-75 18.1 µM | IGROV-1 25.3 µM | HL-60 21.1 µM | OVCAR-4 19.7 µM | SF-295 26.3 µM | RPMI-8226 9.12 µM | SF-268 20.4 µM

C#CC1(O)CCC2[C@@H]3CCc4cc(Oc5nc(F)nc(-c6c7ccccc7cn6C)n5)ccc4C3CC[C@@]21C (stereo not given in full)
inactive: UACC-62 > 100 µM | NCI-H226 > 100 µM | OVCAR-8 > 100 µM | HOP-62 > 100 µM | DMS-273 > 66.1 µM | UACC-257 > 100 µM | COLO 205 > 78.9 µM | SNB-19 > 100 µM | K562 > 67 µM | NCI-H460 > 79.3 µM | SNB-75 > 91.2 µM | HL-60 > 70.5 µM | OVCAR-4 > 100 µM | SF-295 > 100 µM | RPMI-8226 > 47.4 µM | U-251 > 100 µM | SF-268 > 88.1 µM

C=C1C(=O)C23C(O)C1CCC2C12CO[C@]3(O)[C@@H](O)C1C(C)(C)CCC2O (stereo not given in full)
inactive: UACC-62 11.9 µM | NCI-H226 18.8 µM | OVCAR-8 7.5 µM | HOP-62 24.4 µM | DMS-273 14.7 µM | UACC-257 11.6 µM | COLO 205 2.89 µM | SNB-19 14.8 µM | K562 3.67 µM | NCI-H460 11.2 µM | SNB-75 15.7 µM | IGROV-1 15.1 µM | HL-60 5.01 µM | SF-295 16.7 µM | RPMI-8226 3.75 µM | U-251 17.4 µM | SF-268 13.9 µM

NC1=Nc2ccccc2Sc2ccccc21
inactive: UACC-62 > 100 µM | NCI-H226 24.4 µM | OVCAR-8 > 100 µM | HOP-62 > 100 µM | DMS-273 > 100 µM | UACC-257 > 100 µM | COLO 205 > 100 µM | SNB-19 87.3 µM | K562 82.6 µM | NCI-H460 > 100 µM | SNB-75 16.5 µM | IGROV-1 > 100 µM | HL-60 > 100 µM | OVCAR-4 > 100 µM | SF-295 > 100 µM | RPMI-8226 77.4 µM | U-251 > 100 µM | SF-268 56.9 µM

CNC(=O)NCCCCC(NC(=O)OCc1ccccc1)C(=O)OCc1ccccc1 (stereo not given)
inactive: UACC-62 21.5 µM | NCI-H226 60.3 µM | OVCAR-8 29.4 µM | HOP-62 8.81 µM | DMS-273 48.8 µM | UACC-257 18.6 µM | COLO 205 17.7 µM | SNB-19 > 100 µM | K562 44.3 µM | NCI-H460 31.7 µM | SNB-75 20.2 µM | IGROV-1 28.1 µM | HL-60 16.8 µM | OVCAR-4 22.3 µM | SF-295 20.6 µM | RPMI-8226 24.2 µM | U-251 23.9 µM

CCCN1CN(C(C(=O)N[C@@H]2C(=O)N3C(C(=O)O)=C(C)CSC23)c2ccc(O)cc2)CSC1=S (stereo not given in full)
inactive: UACC-62 > 100 µM | OVCAR-8 > 100 µM | HOP-62 > 100 µM | DMS-273 > 100 µM | UACC-257 > 100 µM | COLO 205 55.6 µM | SNB-19 > 100 µM | K562 80 µM | NCI-H460 63.1 µM | SNB-75 > 100 µM | IGROV-1 > 100 µM | HL-60 65.9 µM | OVCAR-4 > 100 µM | SF-295 > 100 µM | RPMI-8226 72.1 µM | U-251 97.5 µM | SF-268 > 100 µM

CN1CCN(C)C1c1cccc(C2N(C)CCN2C)c1
inactive: UACC-62 > 100 µM | NCI-H226 > 100 µM | HOP-62 > 100 µM | DMS-273 > 100 µM | COLO 205 > 100 µM | SNB-19 > 100 µM | K562 46.2 µM | NCI-H460 > 100 µM | SNB-75 48.2 µM | IGROV-1 > 100 µM | HL-60 > 100 µM | OVCAR-4 > 100 µM | SF-295 > 100 µM | RPMI-8226 > 100 µM | U-251 > 100 µM | SF-268 > 100 µM

CC(=O)Nc1c(C)ccc2c1C(=O)c1ccccc1C2=O
inactive: UACC-62 > 100 µM | NCI-H226 > 100 µM | OVCAR-8 82.6 µM | HOP-62 > 100 µM | DMS-273 > 100 µM | UACC-257 > 100 µM | COLO 205 > 100 µM | K562 > 100 µM | NCI-H460 > 100 µM | SNB-75 45.7 µM | IGROV-1 > 100 µM | HL-60 47.2 µM | OVCAR-4 > 100 µM | SF-295 > 100 µM | RPMI-8226 65.8 µM | U-251 > 100 µM | SF-268 > 100 µM

CC/C(=N/O)C(C)C(=O)CCC(=O)Nc1ccc(Cl)cc1 (stereo not given)
inactive: UACC-62 28.2 µM | NCI-H226 > 100 µM | OVCAR-8 > 100 µM | DMS-273 > 100 µM | UACC-257 > 100 µM | COLO 205 > 100 µM | SNB-19 > 100 µM | K562 57.1 µM | NCI-H460 > 100 µM | SNB-75 49.9 µM | IGROV-1 > 100 µM | HL-60 > 100 µM | OVCAR-4 > 100 µM | SF-295 > 100 µM | RPMI-8226 > 100 µM | U-251 > 100 µM | SF-268 > 100 µM

Cn1cc2ccccc2c1-c1nc(N)nc(F)n1
inactive: NCI-H226 29.5 µM | OVCAR-8 > 100 µM | HOP-62 > 100 µM | DMS-273 > 100 µM | UACC-257 > 100 µM | COLO 205 > 100 µM | SNB-19 > 100 µM | K562 > 100 µM | NCI-H460 > 100 µM | SNB-75 47.3 µM | IGROV-1 > 100 µM | HL-60 > 100 µM | OVCAR-4 > 100 µM | SF-295 50.9 µM | RPMI-8226 > 100 µM | U-251 > 100 µM | SF-268 > 100 µM
